Laboratory results published in patent US9809598B2 (Merck Patent GmbH, priority 2014, dated 2017).

Assays:
PARP-1 = target: T1, PARP-1 (Homo sapiens, UniProt P09874); test: PARP-1 autoparsylation assay (HTRF); type: biochemical; details: His-tagged Parp-1, autoparsylation HTRF
T1 construct: purchased Enzo Life Sciences GmbH, Lörrach, Germany
Outline: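 HTRF emission ratio reports biotin-ADP-ribose self-transfer onto His-tagged PARP-1, with biotinylated NAD/NAD as co-substrate, sensed via cryptate anti-His and Xlent-streptavidin.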

TNKS2 = target: T2, TNKS2 (Homo sapiens, UniProt Q9H2K2); test: TNKS2 activity ELISA (autoparsylation assay); type: biochemical; details: GST-tagged Tnks-2 (873-1166 aa); read-out: IC50 [M] TNKS2 ELISA
T2 construct: GST-tagged Tnks-2 (873-1166 aa, prepared in-house); made in house
Outline: (§1)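 Autoparsylation ELISA: biotinylated NAD serves as co-substrate for plate-bound GST-TNKS1/TNKS2, incubated with test compounds. Readout is HRP luminescence after streptavidin-HRP binding, referenced to the no-inhibitor reaction, from which IC50 values are derived.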

TNKS1 = target: T3, TNKS1 (Homo sapiens, UniProt O95271); test: TNKS1 activity ELISA (autoparsylation assay); type: biochemical; details: GST-tagged Tnks-1 (1023-1327 aa)
T3 construct: GST-tagged Tnks-1 (1023-1327 aa, prepared in-house); made in house
Outline: as §1

Tankyrases = details: read-out: EC50 [M] TNKS cellular assay; DLD1 cells, 24 hours, Axin2 increase

T2 sequence (Q9H2K2 873-1166): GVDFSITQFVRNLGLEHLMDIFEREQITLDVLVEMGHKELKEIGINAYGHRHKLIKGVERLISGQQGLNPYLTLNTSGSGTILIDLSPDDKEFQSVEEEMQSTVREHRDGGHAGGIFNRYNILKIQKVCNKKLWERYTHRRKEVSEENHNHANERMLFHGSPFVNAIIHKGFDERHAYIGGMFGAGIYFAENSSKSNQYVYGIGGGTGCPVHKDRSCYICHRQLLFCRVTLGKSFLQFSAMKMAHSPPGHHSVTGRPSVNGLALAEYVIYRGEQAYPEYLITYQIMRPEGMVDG
T3 sequence (O95271 1023-1327): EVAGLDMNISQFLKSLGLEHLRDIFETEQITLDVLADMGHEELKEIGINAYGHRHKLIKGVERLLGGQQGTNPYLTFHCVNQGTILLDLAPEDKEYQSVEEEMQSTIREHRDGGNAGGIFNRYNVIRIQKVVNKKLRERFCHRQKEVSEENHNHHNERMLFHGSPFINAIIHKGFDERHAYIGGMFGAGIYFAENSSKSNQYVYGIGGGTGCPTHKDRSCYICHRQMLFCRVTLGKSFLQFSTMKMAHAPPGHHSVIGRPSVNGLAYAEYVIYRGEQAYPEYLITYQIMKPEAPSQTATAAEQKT
T1 sequence (P09874 whole entry): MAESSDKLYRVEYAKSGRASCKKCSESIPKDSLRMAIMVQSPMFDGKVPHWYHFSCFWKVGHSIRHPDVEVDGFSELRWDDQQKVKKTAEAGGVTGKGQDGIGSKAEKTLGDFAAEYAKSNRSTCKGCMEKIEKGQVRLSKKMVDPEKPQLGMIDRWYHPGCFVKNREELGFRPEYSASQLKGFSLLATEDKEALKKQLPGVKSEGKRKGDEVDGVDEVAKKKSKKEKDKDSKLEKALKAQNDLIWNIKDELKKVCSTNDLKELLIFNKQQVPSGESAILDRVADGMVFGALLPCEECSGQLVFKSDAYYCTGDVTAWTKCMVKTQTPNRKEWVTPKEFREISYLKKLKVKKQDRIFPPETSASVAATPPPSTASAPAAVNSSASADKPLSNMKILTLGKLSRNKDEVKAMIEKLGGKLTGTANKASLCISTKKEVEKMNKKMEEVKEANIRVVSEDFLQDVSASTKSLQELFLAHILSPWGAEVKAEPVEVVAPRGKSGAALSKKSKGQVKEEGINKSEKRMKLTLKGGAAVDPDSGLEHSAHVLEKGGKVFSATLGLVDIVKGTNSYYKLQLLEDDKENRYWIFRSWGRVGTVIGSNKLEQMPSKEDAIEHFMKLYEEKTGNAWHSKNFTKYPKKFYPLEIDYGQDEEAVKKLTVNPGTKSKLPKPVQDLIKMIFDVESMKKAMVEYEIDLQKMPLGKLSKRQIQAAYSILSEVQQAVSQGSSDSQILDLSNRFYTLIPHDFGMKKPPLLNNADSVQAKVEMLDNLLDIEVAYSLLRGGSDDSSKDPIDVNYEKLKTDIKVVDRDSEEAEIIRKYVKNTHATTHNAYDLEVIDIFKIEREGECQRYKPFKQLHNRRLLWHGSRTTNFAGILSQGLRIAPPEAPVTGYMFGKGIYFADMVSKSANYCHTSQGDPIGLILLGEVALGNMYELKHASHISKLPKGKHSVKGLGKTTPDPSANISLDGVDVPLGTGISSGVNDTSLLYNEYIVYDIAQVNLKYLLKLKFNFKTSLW

SMILES	IC50 (PARP-1) [nM]	IC50 (TNKS2) [M]	IC50 (TNKS1) [nM]	EC50 (Tankyrases) [M]
Nc1ncc(C2CCN(C(=O)CCCc3nn4cccc4c(=O)[nH]3)CC2)cc1-c1ncccn1 [Compound C139, 2-[4-(6-Amino-5-pyrimidin-2-yl-3′,4′,5′,6′-tetrahydro-2′H-[3,4′]bipyridinyl-1′-yl)-4-oxo-butyl]-3H-pyrrolo[2,1-f][1,2,4]triazin-4-one]	3200	2.6e-10	0.23	3.4e-09
O=C(CCCc1nn2cccc2c(=O)[nH]1)N1CCC(c2nnc(-c3ccccc3)o2)CC1 [Compound C140, 2-{4-Oxo-4-[4-(5-phenyl-[1,3,4]oxadiazol-2-yl)-piperidin-1-yl]-butyl}-3H-pyrrolo[2,1-f][1,2,4]triazin-4-one]	3600	1e-08	18	1e-07
N#Cc1ccc(OC2CCN(C(=O)CCCc3nn4cccc4c(=O)[nH]3)CC2)cc1 [Compound C141, 4-{1-[4-(4-Oxo-3,4-dihydro-pyrrolo[2,1-f][1,2,4]triazin-2-yl)-butyryl]-piperidin-4-yloxy}-benzonitrile]	2600	6.5e-08	100	6.8e-07
O=C(c1ccc(F)cc1)C1CCN(C(=O)CCCc2nn3cccc3c(=O)[nH]2)CC1 [Compound C142, 2-{4-[4-(4-Fluoro-benzoyl)-piperidin-1-yl]-4-oxo-butyl}-3H-pyrrolo[2,1-f][1,2,4]triazin-4-one]	7200	1.4e-08	14	2e-08
COc1ccc(C(=O)C2CCN(C(=O)CCCc3nn4cccc4c(=O)[nH]3)CC2)cc1C [Compound C143, 2-{4-[4-(4-Methoxy-3-methyl-benzoyl)-piperidin-1-yl]-4-oxo-butyl}-3H-pyrrolo[2,1-f][1,2,4]triazin-4-one]	4800	1.6e-10	0.19	1.7e-09
CC(C)(O)c1ccc(C(=O)C2CCN(C(=O)CCCc3nn4cccc4c(=O)[nH]3)CC2)cc1 [Compound C144, 2-(4-{4-[4-(1-Hydroxy-1-methyl-ethyl)-benzoyl]-piperidin-1-yl}-4-oxo-butyl)-3H-pyrrolo[2,1-f][1,2,4]triazin-4-one]	11000	3.5e-09	7.3	8.3e-08
COc1ccc(C(=O)C2CCN(C(=O)CCCc3nn4c(C)ccc4c(=O)[nH]3)CC2)cc1F [Compound C147, 2-{4-[4-(3-Fluoro-4-methoxy-benzoyl)-piperidin-1-yl]-4-oxo-butyl}-7-methyl-3H-pyrrolo[2,1-f][1,2,4]triazin-4-one]	370	< 1e-10	< 0.1	8.1e-10
COc1ccc(C(=O)C2CCN(C(=O)CCCc3nn4c(C)ccc4c(=O)[nH]3)CC2)cn1 [Compound C148, 2-{4-[4-(6-Methoxy-pyridine-3-carbonyl)-piperidin-1-yl]-4-oxo-butyl}-7-methyl-3H-pyrrolo[2,1-f][1,2,4]triazin-4-one]	770	1.9e-10	0.28	1.4e-09
Cc1ccc2c(=O)[nH]c(CCCC(=O)N3CCC(c4cnc(N)c(C#N)c4)CC3)nn12 [Compound C149, 6-Amino-1′-[4-(7-methyl-4-oxo-3,4-dihydro-pyrrolo[2,1-f][1,2,4]triazin-2-yl)-butyryl]-1′,2′,3′,4′,5′,6′-hexahydro-[3,4′]bipyridinyl-5-carbonitrile]	770	3.8e-10	0.38	3.1e-09
Cc1ccc2c(=O)[nH]c(CCCC(=O)N3CCC(c4cnc(N)c(-c5ncccn5)c4)CC3)nn12 [Compound C150, 2-[4-(6-Amino-5-pyrimidin-2-yl-3′,4′,5′,6′-tetrahydro-2′H-[3,4′]bipyridinyl-1′-yl)-4-oxo-butyl]-7-methyl-3H-pyrrolo[2,1-f][1,2,4]triazin-4-one]	1300	2.8e-10	0.23	1.1e-09
Cc1ccc2c(=O)[nH]c(CCCC(=O)N3CCC(c4nnc(-c5ccccc5)o4)CC3)nn12 [Compound C151, 7-Methyl-2-{4-oxo-4-[4-(5-phenyl-[1,3,4]oxadiazol-2-yl)-piperidin-1-yl]-butyl}-3H-pyrrolo[2,1-f][1,2,4]triazin-4-one]	210	9.3e-10	1.4	1.9e-08
Cc1ccc2c(=O)[nH]c(CCCC(=O)N3CCC(C(=O)c4ccc(F)cc4)CC3)nn12 [Compound C153, 2-{4-[4-(4-Fluoro-benzoyl)-piperidin-1-yl]-4-oxo-butyl}-7-methyl-3H-pyrrolo[2,1-f][1,2,4]triazin-4-one]	2000	1.6e-10	0.17	1.7e-09
COc1ccc(C(=O)C2CCN(C(=O)CCCc3nn4c(C)ccc4c(=O)[nH]3)CC2)cc1C [Compound C154, 2-{4-[4-(4-Methoxy-3-methyl-benzoyl)-piperidin-1-yl]-4-oxo-butyl}-7-methyl-3H-pyrrolo[2,1-f][1,2,4]triazin-4-one]	610	1.3e-10	0.16	9.7e-10
Cc1ccc2c(=O)[nH]c(CCCC(=O)N3CCC(C(=O)c4ccc(C(C)(C)O)cc4)CC3)nn12 [Compound C155, 2-(4-{4-[4-(1-Hydroxy-1-methyl-ethyl)-benzoyl]-piperidin-1-yl}-4-oxo-butyl)-7-methyl-3H-pyrrolo[2,1-f][1,2,4]triazin-4-one]	600	3.8e-10	0.57	1.6e-08
COc1ccc(C(=O)C2CCN(C(=O)CCCc3nn4cc(C)cc4c(=O)[nH]3)CC2)cc1F [Compound C158, 2-{4-[4-(3-Fluoro-4-methoxy-benzoyl)-piperidin-1-yl]-4-oxo-butyl}-6-methyl-3H-pyrrolo[2,1-f][1,2,4]triazin-4-one]	2100	9.2e-10	0.44	4.4e-09
COc1ccc(C(=O)C2CCN(C(=O)CCCc3nn4cc(C)cc4c(=O)[nH]3)CC2)cn1 [Compound C159, 2-{4-[4-(6-Methoxy-pyridine-3-carbonyl)-piperidin-1-yl]-4-oxo-butyl}-6-methyl-3H-pyrrolo[2,1-f][1,2,4]triazin-4-one]	2200	2.7e-09	1.2	3.6e-08
Cc1cc2c(=O)[nH]c(CCCC(=O)N3CCC(c4cnc(N)c(C#N)c4)CC3)nn2c1 [Compound C160, 6-Amino-1′-[4-(6-methyl-4-oxo-3,4-dihydro-pyrrolo[2,1-f][1,2,4]triazin-2-yl)-butyryl]-1′,2′,3′,4′,5′,6′-hexahydro-[3,4′]bipyridinyl-5-carbonitrile]	3300	1e-08	1.8	4.9e-08
Cc1cc2c(=O)[nH]c(CCCC(=O)N3CCC(c4cnc(N)c(-c5ncccn5)c4)CC3)nn2c1 [Compound C161, 2-[4-(6-Amino-5-pyrimidin-2-yl-3′,4′,5′,6′-tetrahydro-2′H-[3,4′]bipyridinyl-1′-yl)-4-oxo-butyl]-6-methyl-3H-pyrrolo[2,1-f][1,2,4]triazin-4-one]	4300	2.9e-09	0.62	9.7e-09
Cc1cc2c(=O)[nH]c(CCCC(=O)N3CCC(c4nnc(-c5ccccc5)o4)CC3)nn2c1 [Compound C162, 6-Methyl-2-{4-oxo-4-[4-(5-phenyl-[1,3,4]oxadiazol-2-yl)-piperidin-1-yl]-butyl}-3H-pyrrolo[2,1-f][1,2,4]triazin-4-one]	1400	3.7e-08	20	5e-07
Cc1cc2c(=O)[nH]c(CCCC(=O)N3CCC(Oc4ccc(C#N)cc4)CC3)nn2c1 [Compound C163, 4-{1-[4-(6-Methyl-4-oxo-3,4-dihydro-pyrrolo[2,1-f][1,2,4]triazin-2-yl)-butyryl]-piperidin-4-yloxy}-benzonitrile]	1300	2.5e-08	21	2e-07
Cc1cc2c(=O)[nH]c(CCCC(=O)N3CCC(C(=O)c4ccc(F)cc4)CC3)nn2c1 [Compound C164, 2-{4-[4-(4-Fluoro-benzoyl)-piperidin-1-yl]-4-oxo-butyl}-6-methyl-3H-pyrrolo[2,1-f][1,2,4]triazin-4-one]	2200	2.8e-09	0.79	2.5e-08
COc1ccc(C(=O)C2CCN(C(=O)CCCc3nn4cc(C)cc4c(=O)[nH]3)CC2)cc1C [Compound C165, 2-{4-[4-(4-Methoxy-3-methyl-benzoyl)-piperidin-1-yl]-4-oxo-butyl}-6-methyl-3H-pyrrolo[2,1-f][1,2,4]triazin-4-one]	2100	2.2e-10	0.22	1.7e-09
Cc1cc2c(=O)[nH]c(CCCC(=O)N3CCC(C(=O)c4ccc(C(C)(C)O)cc4)CC3)nn2c1 [Compound C166, 2-(4-{4-[4-(1-Hydroxy-1-methyl-ethyl)-benzoyl]-piperidin-1-yl}-4-oxo-butyl)-6-methyl-3H-pyrrolo[2,1-f][1,2,4]triazin-4-one]	1400	1.7e-08	12	1.8e-07
Cc1cc2c(=O)[nH]c(CCCC(=O)N3CCC(C(=O)c4cnn(C)c4)CC3)nn2c1 [Compound C168, 6-Methyl-2-{4-[4-(1-methyl-1H-pyrazole-4-carbonyl)-piperidin-1-yl]-4-oxo-butyl}-3H-pyrrolo[2,1-f][1,2,4]triazin-4-one]	5800	3.5e-09	1	3.4e-08
